Source: PMC12333026, “Versatile Imidazole Scaffold with Potent Activity against Multiple Apicomplexan Parasites” (ACS Infectious Diseases, 2025)
Read-outs that look alike come from different tables or passages of the source.

How the values were obtained:
PfPKG [1] = biological target: T1, PfPKG (Plasmodium falciparum, UniProt Q8I719); parameters: method as in number not shown in text; conditions: enantiomer comparison; recently reported by the authors, ref number not shown in text; cited from earlier work
T1 sequence (Q8I719 whole entry): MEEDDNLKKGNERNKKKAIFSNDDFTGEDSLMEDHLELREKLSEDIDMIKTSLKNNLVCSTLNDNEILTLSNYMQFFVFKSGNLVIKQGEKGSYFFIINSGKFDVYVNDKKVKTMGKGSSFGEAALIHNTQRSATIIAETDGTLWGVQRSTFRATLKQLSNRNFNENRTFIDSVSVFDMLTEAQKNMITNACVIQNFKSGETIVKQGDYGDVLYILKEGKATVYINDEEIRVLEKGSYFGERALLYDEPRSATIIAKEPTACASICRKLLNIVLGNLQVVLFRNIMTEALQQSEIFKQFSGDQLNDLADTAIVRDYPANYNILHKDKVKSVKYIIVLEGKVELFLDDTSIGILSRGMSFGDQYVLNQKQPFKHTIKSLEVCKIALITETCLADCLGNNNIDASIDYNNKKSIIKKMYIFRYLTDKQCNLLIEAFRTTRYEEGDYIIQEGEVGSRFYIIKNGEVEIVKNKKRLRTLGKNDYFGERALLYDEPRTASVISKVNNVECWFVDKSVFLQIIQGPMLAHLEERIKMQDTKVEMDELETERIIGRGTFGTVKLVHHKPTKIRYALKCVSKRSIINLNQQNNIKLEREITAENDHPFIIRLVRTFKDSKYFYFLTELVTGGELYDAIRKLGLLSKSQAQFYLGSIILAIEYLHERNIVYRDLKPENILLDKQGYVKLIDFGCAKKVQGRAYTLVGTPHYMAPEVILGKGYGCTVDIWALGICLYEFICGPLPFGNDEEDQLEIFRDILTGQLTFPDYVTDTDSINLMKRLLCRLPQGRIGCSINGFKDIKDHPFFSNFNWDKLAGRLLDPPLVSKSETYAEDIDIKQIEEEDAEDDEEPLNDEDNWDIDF

PfPKG [2] = biological target: T1, PfPKG; experiment: PfPKG enzyme activity assay, recombinant WT; assay type: biochemical
Procedure: (§1) Direct inhibition of recombinant PfPKG phosphorylation activity was carried out using a previously described nonradioactive assay. The assay evaluates PfPKG activity based on changes in initial ATP concentration via luminescence after enzyme phosphorylation of peptide substrate PKCtide ([…]) (SignalChem, Richmond, BC Canada). Enzyme kinase activity was measured in the presence of 26 μM PKCtide; 50.1 nM PfPKG; and 20 μM cGMP in a buffered solution containing 20 mM β-glycerol-phosphate, 20 mM MgCl2, 25 mM HEPES pH 7.5 (KOH), 0.1% BSA and 2 mM DTT. The reaction was activated by the addition of 10 μM ATP with incubation at 30 °C and 90 rpm agitation for 120 min. […] Each assay plate contained reaction wells with no enzyme, no PKCtide peptide substrate and no cGMP as internal controls.

PfPKG T618Q = PfPKG T618Q (Plasmodium falciparum, UniProt Q8I719, T618Q); experiment: PfPKG enzyme activity assay, T618Q gatekeeper mutant; assay type: biochemical, P. falciparum
PfPKG T618Q, sequence (Q8I719 whole entry T618Q): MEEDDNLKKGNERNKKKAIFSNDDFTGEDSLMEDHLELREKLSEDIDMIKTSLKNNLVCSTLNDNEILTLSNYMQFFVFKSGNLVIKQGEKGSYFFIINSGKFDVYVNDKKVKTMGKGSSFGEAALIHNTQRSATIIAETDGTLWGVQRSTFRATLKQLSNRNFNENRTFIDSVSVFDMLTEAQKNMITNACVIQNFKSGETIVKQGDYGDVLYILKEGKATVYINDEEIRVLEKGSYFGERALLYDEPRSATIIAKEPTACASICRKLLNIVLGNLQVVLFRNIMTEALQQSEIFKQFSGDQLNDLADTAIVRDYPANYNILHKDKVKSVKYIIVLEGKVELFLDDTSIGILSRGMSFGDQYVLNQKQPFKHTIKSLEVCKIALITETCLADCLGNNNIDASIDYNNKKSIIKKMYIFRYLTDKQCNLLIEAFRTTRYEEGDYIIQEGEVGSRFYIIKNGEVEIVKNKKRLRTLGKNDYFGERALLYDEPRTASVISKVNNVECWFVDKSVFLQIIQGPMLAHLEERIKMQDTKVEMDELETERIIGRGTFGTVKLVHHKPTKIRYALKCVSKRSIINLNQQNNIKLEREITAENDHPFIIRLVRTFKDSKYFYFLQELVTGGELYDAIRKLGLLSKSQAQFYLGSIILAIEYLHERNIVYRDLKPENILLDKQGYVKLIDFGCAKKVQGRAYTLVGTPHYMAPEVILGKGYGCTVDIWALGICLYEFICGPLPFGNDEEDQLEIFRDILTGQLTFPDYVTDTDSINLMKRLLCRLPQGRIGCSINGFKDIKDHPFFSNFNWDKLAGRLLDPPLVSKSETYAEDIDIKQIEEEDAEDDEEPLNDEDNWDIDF
Procedure: as §1

PfCDPK1 = biological target: T2, PfCDPK1 (Plasmodium falciparum, UniProt P62344); experiment: CDPK enzyme activity assay, PfCDPK1; assay type: biochemical, P. falciparum; conditions: recombinant enzyme; mean ± SD, n = 2–3 experiments; read-out: enzyme IC50 (±SD) PfCDPK1 WT
T2 construct: made in house
T2 sequence (P62344 whole entry): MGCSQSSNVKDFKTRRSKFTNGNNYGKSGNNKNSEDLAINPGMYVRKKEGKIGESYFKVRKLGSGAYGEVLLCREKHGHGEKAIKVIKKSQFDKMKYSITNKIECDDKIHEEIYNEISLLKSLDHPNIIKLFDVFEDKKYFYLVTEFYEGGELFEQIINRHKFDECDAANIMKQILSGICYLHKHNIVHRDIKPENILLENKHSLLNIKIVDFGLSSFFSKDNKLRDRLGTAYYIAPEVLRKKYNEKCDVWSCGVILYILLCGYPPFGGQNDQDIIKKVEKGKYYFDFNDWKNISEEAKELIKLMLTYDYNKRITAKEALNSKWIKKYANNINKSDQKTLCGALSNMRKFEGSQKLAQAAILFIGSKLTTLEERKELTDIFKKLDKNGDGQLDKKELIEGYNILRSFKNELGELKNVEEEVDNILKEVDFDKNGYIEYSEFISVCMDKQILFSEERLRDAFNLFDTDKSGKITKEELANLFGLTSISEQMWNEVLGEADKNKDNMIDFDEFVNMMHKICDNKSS
Procedure: (§2) Recombinant expression of PfCDPK1, PfCDPK4, TgCDPK1 WT, TgCDPK1-G128M, CpCDPK1 and CpCDPK1-G152 M were purified as previously described. […] These reactions were performed in a buffer composed of 1 mM EGTA (pH 7.2), 10 mM MgCl2, 20 mM HEPES pH 7.5 (KOH), 0.1% BSA. The reactions were initiated with addition of 10 μM ATP and 2 mM CaCl2 as enzyme activation reagent. Reaction plates were incubated for 90 min with 90 rpm agitation at 30 °C. […] KinaseGlo (Promega) luminescence-based assay in which luminescence is inversely related to kinase activity and […] was used as previously described.

PfCDPK4 = biological target: T3, PfCDPK4 (Plasmodium falciparum, UniProt Q8IBS5); experiment: CDPK enzyme activity assay, PfCDPK4; assay type: biochemical, P. falciparum
T3 construct: made in house
T3 sequence (Q8IBS5 whole entry): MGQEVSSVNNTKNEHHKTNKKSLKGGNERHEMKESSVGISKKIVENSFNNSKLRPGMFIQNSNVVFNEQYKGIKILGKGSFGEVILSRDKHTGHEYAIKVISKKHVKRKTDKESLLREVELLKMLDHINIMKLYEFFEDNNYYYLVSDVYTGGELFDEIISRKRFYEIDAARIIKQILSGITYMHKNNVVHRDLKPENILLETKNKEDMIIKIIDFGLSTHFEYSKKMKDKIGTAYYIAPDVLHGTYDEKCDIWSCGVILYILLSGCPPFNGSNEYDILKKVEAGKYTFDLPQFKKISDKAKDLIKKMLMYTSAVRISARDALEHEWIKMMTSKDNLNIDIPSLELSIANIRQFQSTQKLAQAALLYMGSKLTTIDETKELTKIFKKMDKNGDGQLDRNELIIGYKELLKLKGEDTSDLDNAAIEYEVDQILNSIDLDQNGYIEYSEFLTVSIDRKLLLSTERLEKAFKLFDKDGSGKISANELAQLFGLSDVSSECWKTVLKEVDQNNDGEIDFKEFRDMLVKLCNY
Procedure: as §2

[3] = system: P. falciparum 3D7 (WT) asexual stage parasites; experiment: Growth inhibition assay, asexual stage parasites, WT 3D7; assay type: cell-based; conditions: Plasmodium falciparum; 3D7 asexual stage parasites, 72 h; mean ± SD, n = 1–2
Procedure: (§3) lines were maintained with O+ human erythrocytes (BioIVT). WT 3D7A10 and T618Q parasites were kind gifts from Dr. David Fidock (Columbia University) and Dr. David Baker (London School of Tropical Medicine and Hygiene), respectively. Growth inhibition assays were performed as previously described. Parasites were grown in RPMI 1640 medium (Sigma-Aldrich, St. Louis, MO, U.S.A.) supplemented with 5 mg/mL Albumax (Gibco), 50 μg/mL hypoxanthine (Sigma-Aldrich), 2 mg/mL Na2CO3 (Sigma-Aldrich), 25 mM HEPES, and 50 μg/mL gentamicin (Gibco). The growth assay was initiated with cultures with >80% ring stage parasites, diluted to a parasitemia of 0.4% and a hematocrit of 1%. Parasites were transferred to a 96-well plate with test compounds, vehicle, or DHA as positive control, and maintained for 72 h in 5% CO2, 5% O2, and 90% N2 in a humidified chamber. Parasite viability at 72 h was determined by addition of SYBR Green I nucleic acid stain (Thermo Fisher Scientific, S7563) and Mitotracker Deep Red (Fisher M422426) followed by flow cytometry on a BD FACSVerse using BD FACSuite software. Data acquired were analyzed using Flowjo software. EC50 values were derived by nonlinear regression in Graph Pad Prism 7.

[4] = system: P. falciparum T618Q asexual stage parasites; experiment: Growth inhibition assay, asexual stage parasites expressing PfPKG T618Q; assay type: cell-based; conditions: Plasmodium falciparum, 72 h, read-out: P. falciparum EC50 (±SD) T618Q
Procedure: as §3

TgCDPK1 WT = biological target: T4, TgCDPK1 WT (Toxoplasma gondii, UniProt Q9BJF5); experiment: biochemical
T4 sequence (Q9BJF5 1-507): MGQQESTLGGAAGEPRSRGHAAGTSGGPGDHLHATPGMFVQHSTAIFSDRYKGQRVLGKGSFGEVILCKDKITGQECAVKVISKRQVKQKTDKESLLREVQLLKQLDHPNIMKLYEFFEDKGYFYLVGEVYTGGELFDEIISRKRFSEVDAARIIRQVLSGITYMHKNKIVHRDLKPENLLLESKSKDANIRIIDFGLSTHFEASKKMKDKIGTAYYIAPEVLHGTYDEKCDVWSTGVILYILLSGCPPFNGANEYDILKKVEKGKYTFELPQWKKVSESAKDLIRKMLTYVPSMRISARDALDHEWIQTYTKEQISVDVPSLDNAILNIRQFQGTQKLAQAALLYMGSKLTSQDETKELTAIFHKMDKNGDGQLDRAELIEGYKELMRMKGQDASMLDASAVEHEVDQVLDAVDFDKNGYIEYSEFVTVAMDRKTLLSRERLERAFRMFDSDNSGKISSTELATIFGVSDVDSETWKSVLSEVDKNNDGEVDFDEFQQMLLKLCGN
Procedure: as §2

TgCDPK1-G128M = biological target: T5, TgCDPK1-G128M (Toxoplasma gondii, UniProt Q9BJF5, G128M); experiment: CDPK enzyme activity assay, TgCDPK1 G128M; assay type: biochemical, T. gondii
T5 construct: made in house
T5 sequence (Q9BJF5 whole entry G128M): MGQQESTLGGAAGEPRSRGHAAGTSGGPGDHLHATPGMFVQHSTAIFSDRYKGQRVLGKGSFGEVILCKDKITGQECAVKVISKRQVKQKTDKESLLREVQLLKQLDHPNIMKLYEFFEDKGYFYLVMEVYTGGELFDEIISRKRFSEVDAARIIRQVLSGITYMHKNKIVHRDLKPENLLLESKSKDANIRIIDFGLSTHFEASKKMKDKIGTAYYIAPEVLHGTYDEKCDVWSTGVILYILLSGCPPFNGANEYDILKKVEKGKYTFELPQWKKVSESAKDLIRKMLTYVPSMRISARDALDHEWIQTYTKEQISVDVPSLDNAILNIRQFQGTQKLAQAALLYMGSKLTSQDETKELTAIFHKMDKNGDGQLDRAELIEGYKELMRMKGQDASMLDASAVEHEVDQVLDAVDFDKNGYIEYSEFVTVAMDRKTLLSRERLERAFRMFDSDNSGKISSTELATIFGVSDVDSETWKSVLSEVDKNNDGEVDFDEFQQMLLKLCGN
Procedure: as §2

CpCDPK1 = biological target: T6, CpCDPK1 (Cryptosporidium parvum, UniProt A3FQ16); experiment: CDPK enzyme activity assay, CpCDPK1 WT; assay type: biochemical, C. parvum; conditions: Kinase-Glo assay; mean ± SD, n = 2–3 experiments; read-out: CpCDPK1 IC50 (±SD) WT
T6 construct: made in house
T6 sequence (A3FQ16 1-538): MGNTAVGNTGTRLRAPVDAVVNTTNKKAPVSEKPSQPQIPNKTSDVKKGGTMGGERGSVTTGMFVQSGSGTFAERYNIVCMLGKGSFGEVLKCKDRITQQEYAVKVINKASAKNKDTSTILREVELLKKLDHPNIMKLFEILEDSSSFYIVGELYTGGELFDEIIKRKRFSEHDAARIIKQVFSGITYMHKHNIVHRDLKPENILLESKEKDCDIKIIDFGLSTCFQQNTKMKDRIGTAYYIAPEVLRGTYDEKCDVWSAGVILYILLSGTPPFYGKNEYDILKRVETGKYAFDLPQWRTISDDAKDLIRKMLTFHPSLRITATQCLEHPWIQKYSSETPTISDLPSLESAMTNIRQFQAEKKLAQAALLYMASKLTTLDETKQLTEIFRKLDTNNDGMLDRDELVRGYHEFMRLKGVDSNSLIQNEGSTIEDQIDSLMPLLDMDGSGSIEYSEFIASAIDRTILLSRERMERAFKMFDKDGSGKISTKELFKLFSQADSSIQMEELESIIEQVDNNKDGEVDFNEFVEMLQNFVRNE
Procedure: as §2

CpCDPK1-G152M = biological target: T7, CpCDPK1-G152M (Cryptosporidium parvum, UniProt A3FQ16, G152M); experiment: CDPK enzyme activity assay, CpCDPK1 G152M; assay type: biochemical, C. parvum
T7 construct: made in house
T7 sequence (A3FQ16 whole entry G152M): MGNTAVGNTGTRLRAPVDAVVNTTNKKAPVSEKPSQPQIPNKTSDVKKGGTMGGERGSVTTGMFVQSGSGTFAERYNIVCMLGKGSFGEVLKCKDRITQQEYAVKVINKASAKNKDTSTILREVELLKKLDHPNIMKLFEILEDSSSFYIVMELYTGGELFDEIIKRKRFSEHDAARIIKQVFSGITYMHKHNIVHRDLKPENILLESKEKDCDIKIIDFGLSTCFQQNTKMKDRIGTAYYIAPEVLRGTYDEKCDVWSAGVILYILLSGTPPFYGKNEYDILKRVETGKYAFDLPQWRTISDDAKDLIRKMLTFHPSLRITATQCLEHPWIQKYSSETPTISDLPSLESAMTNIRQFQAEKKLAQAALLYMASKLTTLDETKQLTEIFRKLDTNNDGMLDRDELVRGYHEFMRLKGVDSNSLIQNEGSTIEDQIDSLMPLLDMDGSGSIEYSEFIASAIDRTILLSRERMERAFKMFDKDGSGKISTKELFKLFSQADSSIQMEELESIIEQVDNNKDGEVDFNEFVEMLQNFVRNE
Procedure: as §2

[5] = system: strain UGA1 expressing nanoluciferase, replication in HCT-8 cells; experiment: Growth inhibition assay in HCT-8 cells (nanoluciferase strain UGA1); assay type: cell-based, C. parvum; conditions: Cryptosporidium parvum, 48 h, nanoluciferase readout, (±SD), read-out: EC50 of replication measured in HCT-8 cells
Procedure: strain UGA1 transfected to express nanoluciferase (Nluc) and obtained from the University of Arizona after propagation in newborn calves. HCT-8 cells were added to a 384-well plate and allowed to grow for 48 h to reach 75–90% confluence. The medium was removed, and test compounds were added in serial dilutions prior to the addition of 1000 oocysts per well in RPMI 1640 medium supplemented with 10% heat inactivated FBS and 1% penicillin streptomycin. Plates were incubated for 48 h; Nano-Glo luciferase reagent (Promega, Madison, WI) was then added, and the plates were read on an EnVision multilabel plate reader (PerkinElmer, Waltham, MA). EC50 curves were calculated as previously described using Prism v6.07 (GraphPad Software, La Jolla, CA).

[6] = system: T. gondii tachyzoites, parental control; experiment: Proliferation EC50, host fibroblast nuclei count, parental control; assay type: cell-based; conditions: Toxoplasma gondii
Procedure: (§4) Human Foreskin Fibroblasts (HFF) were cultured in DMEM, with D-glucose (4.5 g/L), L-glutamine, and sodium pyruvate (110 mg/L) (Gibco) that were further supplemented with 10% Fetal Clone 1 serum (FCS)(HyClone), 50 U/mL penicillin (Gibco), […] streptomycin (Gibco), and 1× GlutaMax (Gibco). HFF cells were cultured in T25 flasks (Corning) in a humidified incubator at 37 °C and 5% CO2. For culture, media was replaced with DMEM, as described above, with 1% FCS. Mutant strains were created as described in.
(§5) Presence of desired mutations in parasite lines, TgCDPK1^G128M, TgCDPK1^G128M + TgMAPKL1^L162Q and […] was verified through sequencing. Compounds were dissolved in DMSO and serially diluted 4-fold across the first 10 wells of a 96 well plate, with the highest drug concentration in the first column being 25 μM. The strain of was then added to the first 11 columns of the 96-well plate at a density of 4000 parasites per well. The 11th column contained no compounds, and the 12th column contained no parasites and no compound. After 5 days of incubation at 37 °C and 5% CO2, cells were washed with PBS and fixed with 4% PFA in PBS (Thermo Fisher Scientific, Waltham, MA, USA). After fixing, cells were washed three times with PBS and stained with 300 nM DAPI in PBS before being washed again three times with PBS.
(§6) Images were acquired in an ImageXpress Pico Automated Cell Imaging System (Molecular Devices, San Jose, CA, USA) with a 4× objective using UV fluorescence. Following imaging, ImageXpress software was used to count objects with a fluorescence intensity ≥8 and a size of 12–30 μm, giving a total count of host cell nuclei for each well. EC50 were determined based on the number of remaining fibroblast nuclei using a nonlinear regression analysis with GraphPad Prism software version 10.0.0 for Windows, GraphPad Software, Boston, Massachusetts USA. Each compound was tested in ≥3 experiments in quadruplicate rows.

[7] = system: T. gondii tachyzoites expressing TgPKG T761Q; experiment: Proliferation EC50, host fibroblast nuclei count, TgPKG T761Q mutant; assay type: cell-based; conditions: for EC50: Toxoplasma gondii, Fibroblast
Procedure: as §4, §5, §6

[8] = system: T. gondii tachyzoites expressing TgCDPK1 G128M; experiment: Proliferation EC50, host fibroblast nuclei count, TgCDPK1 G128M mutant; assay type: cell-based
Procedure: as §4, §5, §6

[9] = system: T. gondii tachyzoites expressing TgCDPK1 G128M; TgMAPKL-1 L162Q; experiment: Proliferation EC50, host fibroblast nuclei count, double mutant; assay type: cell-based
Procedure: as §4, §5, §6

[10] = system: T. gondii RH strain expressing β-galactosidase, parental; experiment: Proliferation EC50, β-galactosidase readout, parental strain; assay type: cell-based; conditions: Toxoplasma gondii, 72 h, read-out: T. gondii EC50 (±SD) CONTROL
[11] = system: T. gondii RH strain with L162Q substitution in TgMAPKL1; experiment: Proliferation EC50, β-galactosidase readout, TgMAPKL1 L162Q; assay type: cell-based
Procedure: as §4
An RH strain of with an L162Q substitution in TgMAPKL1 introduced by CRISPR/Cas9 site directed mutagenesis into a clone expressing β-galactosidase was used to determine the EC50s for proliferation. Compounds were dissolved in DMSO and serially diluted 4-fold across the first 11 columns of a 96 well plate from the highest concentration of 25 μM leaving the final column with no drugs. was added to the first 11 columns of the 96 well plate at 4000 parasites per well. The last column contained no compound. Plates were incubated 72 h at 37 °C and 5% CO2. were quantified by spectrophotometrically measuring the β-galactosidase concentration of each well after cell lysis and exposure to chlorophenol red β-galactopyranose (Sigma-Aldrich, St. Louis, MO) substrate. Each compound was tested at least three times in quadruplicate.

O=C(c1nccs1)N1CC[C@H](Nc2nccc(-n3cc(C4CC4)nc3-c3ccccc3)n2)C1 [(S)-RY-1-165]
PfPKG inhibition (in words) (PfPKG [1]): inactive

O=C(c1nccs1)N1CC[C@@H](Nc2nccc(-n3cc(C4CC4)nc3-c3cccc(Cl)c3)n2)C1 [(R)-RY-1-185]
IC50 (PfPKG [2]): 190 nM | IC50 (PfPKG T618Q): > 10000 nM | IC50 (PfCDPK1): 6690 nM | IC50 (PfCDPK4): 2210 nM | EC50 [3]: 6500 nM | EC50 [4]: 10100 nM | IC50 (TgCDPK1 WT): 60 nM | IC50 (TgCDPK1-G128M): > 30000 nM | TgCDPK1 G128M mutant enzyme less sensitive (TgCDPK1-G128M; G128M versus WT enzyme): ≥ 600 fold | IC50 (CpCDPK1): 90 nM | IC50 (CpCDPK1-G152M): > 30000 nM | CpCDPK1 G152M mutant enzyme less sensitive (CpCDPK1-G152M; G152M versus WT enzyme): ≥ 300 × | EC50 [5]: 10800 nM | EC50 ([6]; read-out: T. gondii EC50 (±SD) CONTROL, tachyzoites, parental control of CDPK1 G128M, mean ± SD, n = 3–5): 150 nM | EC50 ([6]; read-out: T. gondii EC50 (±SD) CONTROL, tachyzoites, parental control of PKG T761Q, mean ± SD, n = 3–5): 100 nM | EC50 ([6]; read-out: T. gondii EC50 (±SD) CONTROL, tachyzoites, parental control of the double mutant, mean ± SD, n = 3–5): 120 nM | EC50 ([6]; read-out: average EC50 against parental parasites, parental of TgPKG T761Q): 94 nM | EC50 ([7]; read-out: T. gondii EC50 (±SD) PKGT761Q): 170 nM | EC50 ([7]; read-out: average EC50 against the T761Q mutants): 161 nM | increase in EC50, T761Q mutants versus parental ([7]; average): 1.7 fold | EC50 for G128M parasites higher compared to the parental strain ([8]; TgCDPK1 G128M versus parental): 1.8 fold | EC50 ([8]; Toxoplasma gondii, Fibroblast, read-out: T. gondii EC50 (±SD) CDPK1 G128M): 300 nM | increase in EC50 against double mutant TgCDPK1 G128M; TgMAPKL-1 L162Q versus parental control [9]: 9 fold | EC50 ([9]; Toxoplasma gondii, Fibroblast, read-out: T. gondii EC50 (±SD) CDPK1 G128M, MAPKL1 L162Q): 1210 nM | EC50 [10]: 120 nM | increase in EC50 against TgMAPKL-1 L162Q parasites versus parental strain [11]: approximately 2.75 fold | EC50 ([11]; Toxoplasma gondii, 72 h, read-out: T. gondii EC50 (±SD) MAPKL1 L162Q): 330 nM
